Reference: US10131659B2, “Iodonium analogs as inhibitors of NADPH oxidases and other flavin dehydrogenases; formulations thereof; and uses thereof” (priority 2014, dated 2018)
Read-outs that look alike come from different tables or passages of the source.

Key:
NOX1/A1/O1 = target: T1, NOX1/A1/O1 (Homo sapiens, UniProt Q9Y5S8); test: NOX1-dependent ROS production, luminescence assay for O2.- in HEK293 cells expressing the NOX1 complex; assay type: cell-based; conditions: for IC50 / IC50 toward NOX1: exposure for 30 min
T1 construct: expressed in transfected cells; host or cells: HEK293

NOX2 = target: T2, NOX2 (Homo sapiens, UniProt P04839); test: NOX2-dependent ROS production, luminescence assay for O2.- in differentiated HL-60 cells; assay type: cell-based; conditions: exposure for 30 min
T2 construct: fully differentiated HL-60 cells expressing active NOX2; endogenous in cells; host or cells: differentiated HL-60

NOX4 = target: T3, NOX4 (Homo sapiens, UniProt Q9NPH5); test: NOX4-dependent H2O2 production, Amplex Red assay in reconstituted HEK293 cells; assay type: cell-based; conditions: for IC50 / IC50 toward NOX4: exposure for 30 min
T3 construct: expressed in transfected cells; host or cells: HEK293
T3 sequence (Q9NPH5 1-578): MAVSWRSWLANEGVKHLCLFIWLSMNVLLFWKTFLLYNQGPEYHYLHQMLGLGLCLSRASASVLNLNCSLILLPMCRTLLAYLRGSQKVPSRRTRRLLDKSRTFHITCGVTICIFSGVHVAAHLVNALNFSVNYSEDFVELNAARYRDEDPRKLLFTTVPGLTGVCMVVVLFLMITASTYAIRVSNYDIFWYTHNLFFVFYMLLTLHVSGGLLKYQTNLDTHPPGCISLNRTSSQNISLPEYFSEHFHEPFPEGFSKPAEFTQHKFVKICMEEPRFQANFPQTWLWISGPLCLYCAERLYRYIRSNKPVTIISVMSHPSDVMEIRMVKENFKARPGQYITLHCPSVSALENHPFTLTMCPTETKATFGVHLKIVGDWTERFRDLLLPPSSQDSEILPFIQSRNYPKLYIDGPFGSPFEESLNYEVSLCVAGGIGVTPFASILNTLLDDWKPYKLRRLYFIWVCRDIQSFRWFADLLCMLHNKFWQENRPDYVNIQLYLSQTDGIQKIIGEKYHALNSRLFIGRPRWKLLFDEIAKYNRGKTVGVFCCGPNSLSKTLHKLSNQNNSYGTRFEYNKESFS
T3 sequence (P13498 2-195 partner limits assumed): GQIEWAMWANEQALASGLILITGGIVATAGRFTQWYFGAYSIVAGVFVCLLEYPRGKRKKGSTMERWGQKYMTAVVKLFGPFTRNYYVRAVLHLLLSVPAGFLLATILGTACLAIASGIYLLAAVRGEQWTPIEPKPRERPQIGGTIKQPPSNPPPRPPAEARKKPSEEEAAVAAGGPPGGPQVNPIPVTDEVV
Experimental: (§1) H2O2 was measured by Amplex Red assay to determine NOX4 or Duox2 activity in fully reconstituted HEK293 cells. The method conducted was similar to the approach disclosed in Jaquet et al in Brit J. Pharmacology 164: 507-520, 2011 using somewhat different cell models for the NOX isoforms and we studied Duox2 in our own cell model.

NOX5 = target: T4, NOX5 (Homo sapiens, UniProt Q96PH1); test: NOX5-dependent ROS production, luminescence assay for O2.- in UACC257 melanoma cells; assay type: cell-based; conditions: exposure for 30 min
T4 sequence (Q96PH1 1-765): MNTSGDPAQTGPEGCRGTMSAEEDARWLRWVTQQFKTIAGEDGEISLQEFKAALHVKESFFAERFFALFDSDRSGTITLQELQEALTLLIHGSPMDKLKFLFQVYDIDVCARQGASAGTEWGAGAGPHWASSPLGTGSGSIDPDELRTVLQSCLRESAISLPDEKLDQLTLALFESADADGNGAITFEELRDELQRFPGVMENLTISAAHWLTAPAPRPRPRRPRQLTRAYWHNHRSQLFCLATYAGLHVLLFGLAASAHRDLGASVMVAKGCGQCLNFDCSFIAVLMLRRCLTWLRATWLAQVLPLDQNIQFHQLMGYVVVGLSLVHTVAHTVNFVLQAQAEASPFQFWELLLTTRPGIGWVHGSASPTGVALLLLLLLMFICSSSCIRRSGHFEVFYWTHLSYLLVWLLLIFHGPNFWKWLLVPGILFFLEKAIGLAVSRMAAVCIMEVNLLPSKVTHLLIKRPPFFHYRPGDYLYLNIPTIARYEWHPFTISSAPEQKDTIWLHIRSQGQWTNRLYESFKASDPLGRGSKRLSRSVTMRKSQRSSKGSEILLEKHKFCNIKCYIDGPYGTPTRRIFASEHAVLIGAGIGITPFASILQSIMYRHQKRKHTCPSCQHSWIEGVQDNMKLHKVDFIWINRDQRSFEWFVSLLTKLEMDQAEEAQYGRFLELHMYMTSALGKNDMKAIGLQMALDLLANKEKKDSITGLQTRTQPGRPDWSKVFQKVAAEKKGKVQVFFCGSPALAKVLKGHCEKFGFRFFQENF

[1] = test system: HT-29 human colon cancer cells; test: Clonogenic assay, HT-29 cells; assay type: cell-based
Experimental: Several iodonium analog compounds were analyzed for inhibition of HT-29 growth using a clonogenic assay performed as described in Doroshow et al Biochem. Biophys. Res. Commun. 135: 330-335, 1986.

[2] = test system: NOX1, NOX2, NOX4, NOX5, and DUOX2; test: Screening for NADPH oxidase isoform specificity in cellular models (all isoforms); assay type: cell-based, human
Experimental: as §1, with “To evaluate compound specificity, a luminescence assay for O2.^− was used with HEK293 cells expressing all components of the NOX1 complex; fully differentiated HL-60 cells expressing active NOX2; and UACC257 melanoma cells that exclusively express active NOX5. H2O2” for “H2O2”

[3] = test system: HT-29 human colon cancer cells; test: Growth inhibition of HT-29 cells by MTT assay; assay type: cell-based; conditions: for IC50: read-out: IC50, HT-29 human colon cancer cell growth
Experimental: The compounds were analyzed for growth inhibition of HT-29 human colon cancer cells by MTT assay: 48 hr, drug exposures over several orders of concentration. The MTT assay was performed as described in Wu et al J. Immunology 190: 1859-1872, 2013.

[4] = test system: ROS production in HT-29 human colon cancer cells; test: ROS production in HT-29 cells (chemiluminescence / DCF analytical cytometry); assay type: cell-based
DUOX2/A2 = DUOX2/A2 (Homo sapiens, UniProt Q9NRD8); test: DUOX2-dependent H2O2 production, Amplex Red assay in reconstituted HEK293 cells; assay type: cell-based
DUOX2/A2, sequence (Q9NRD8 26-1548): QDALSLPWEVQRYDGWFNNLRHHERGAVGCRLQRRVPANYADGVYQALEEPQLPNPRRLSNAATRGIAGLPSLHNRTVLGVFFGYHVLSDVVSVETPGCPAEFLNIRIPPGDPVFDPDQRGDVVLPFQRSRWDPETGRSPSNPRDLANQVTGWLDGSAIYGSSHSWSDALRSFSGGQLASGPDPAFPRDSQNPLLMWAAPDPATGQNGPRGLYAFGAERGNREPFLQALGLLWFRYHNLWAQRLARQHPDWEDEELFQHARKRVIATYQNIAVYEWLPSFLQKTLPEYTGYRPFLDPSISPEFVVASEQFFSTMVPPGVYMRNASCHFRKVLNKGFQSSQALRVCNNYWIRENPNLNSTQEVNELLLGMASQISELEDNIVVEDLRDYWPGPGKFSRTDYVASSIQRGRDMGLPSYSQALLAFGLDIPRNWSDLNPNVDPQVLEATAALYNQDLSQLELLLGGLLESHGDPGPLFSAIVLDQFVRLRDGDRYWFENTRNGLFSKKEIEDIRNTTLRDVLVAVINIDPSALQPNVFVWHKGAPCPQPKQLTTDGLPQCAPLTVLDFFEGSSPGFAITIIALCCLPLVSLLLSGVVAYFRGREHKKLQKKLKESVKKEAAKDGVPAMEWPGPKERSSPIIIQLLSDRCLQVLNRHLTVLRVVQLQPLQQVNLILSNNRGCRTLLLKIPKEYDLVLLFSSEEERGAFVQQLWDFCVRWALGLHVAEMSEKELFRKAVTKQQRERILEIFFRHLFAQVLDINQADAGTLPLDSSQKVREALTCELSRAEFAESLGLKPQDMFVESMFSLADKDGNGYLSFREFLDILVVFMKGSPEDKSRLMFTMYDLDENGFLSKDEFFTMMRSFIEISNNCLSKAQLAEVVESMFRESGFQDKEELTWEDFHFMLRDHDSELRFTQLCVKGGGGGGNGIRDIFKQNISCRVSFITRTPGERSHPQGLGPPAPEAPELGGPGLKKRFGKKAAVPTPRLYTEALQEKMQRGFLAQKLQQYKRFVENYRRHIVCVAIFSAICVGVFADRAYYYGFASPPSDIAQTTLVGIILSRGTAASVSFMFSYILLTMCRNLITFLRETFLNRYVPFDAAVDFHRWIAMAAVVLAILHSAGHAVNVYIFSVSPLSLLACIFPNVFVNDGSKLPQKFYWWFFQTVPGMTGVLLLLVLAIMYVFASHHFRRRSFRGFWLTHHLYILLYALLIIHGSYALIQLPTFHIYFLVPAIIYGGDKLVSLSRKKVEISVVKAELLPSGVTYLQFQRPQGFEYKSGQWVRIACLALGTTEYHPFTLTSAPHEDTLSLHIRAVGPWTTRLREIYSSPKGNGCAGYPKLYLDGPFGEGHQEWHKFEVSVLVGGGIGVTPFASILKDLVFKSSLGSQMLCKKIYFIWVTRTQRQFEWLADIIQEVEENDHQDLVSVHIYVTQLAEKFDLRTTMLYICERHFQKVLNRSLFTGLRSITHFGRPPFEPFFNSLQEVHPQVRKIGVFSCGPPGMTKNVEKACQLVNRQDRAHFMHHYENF
DUOX2/A2, sequence (Q1HG44 whole entry partner): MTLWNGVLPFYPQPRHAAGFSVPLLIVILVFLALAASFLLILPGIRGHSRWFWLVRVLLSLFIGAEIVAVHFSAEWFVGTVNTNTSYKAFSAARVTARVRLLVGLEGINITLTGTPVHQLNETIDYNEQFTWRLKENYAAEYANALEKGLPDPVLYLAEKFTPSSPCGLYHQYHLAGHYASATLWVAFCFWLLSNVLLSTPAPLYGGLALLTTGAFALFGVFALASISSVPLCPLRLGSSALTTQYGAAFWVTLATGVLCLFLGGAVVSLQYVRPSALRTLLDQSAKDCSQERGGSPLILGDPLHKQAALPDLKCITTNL
Experimental: as §1

[5] = test system: HT-29 human colon cancer cells; test: HT-29 cell cycle progression; assay type: cell-based; conditions: for G1 (%) / G2 (%) / S phase (%): 24 hours
Experimental: Several iodonium analog compounds were analyzed for effect on HT-29 cell cycle progression.

NOX1 mRNA expression = test: NOX1 expression in HT-29 cells by quantitative RT-PCR; assay type: cell-based; conditions: HT-29 human colon cancer cells
[6] = 3-5 independent experiments, read-out: IC50 ± SE, NOX1/A1/O1 HEK 293
[7] = 3-5 independent experiments, read-out: IC50 ± SE, NOX2 HL-60
[8] = 3-5 independent experiments, read-out: IC50 ± SE, NOX4 HEK293
[9] = 3-5 independent experiments, read-out: IC50 ± SE, NOX5 UACC-257
[10] = Homo sapiens, HT-29, 6 h, read-out: IC50 (±SE) clonogenic survival, 6 hrs drug exposure, 6 hrs exposure
[11] = 3-5 independent experiments, read-out: IC50 ± SE, DUOX2/A2 HEK 293
[12] = Homo sapiens, HT-29, 2 h, read-out: IC50 (±SE) clonogenic survival, 2 hrs drug exposure, 2 hrs exposure
[13] = Homo sapiens, HT-29, 240 h, read-out: IC50 clonogenic survival, 10 days drug exposure, 10 days exposure

| Structure (SMILES) | IC50 (NOX1/A1/O1; [6]) [nM] | IC50 (NOX2; [7]) [nM] | IC50 (NOX4; [8]) [nM] | IC50 (NOX5; [9]) [nM] | IC50 [1, 10] [nM] | IC50 ([3]; Homo sapiens, HT-29, 48 h) [nM] | IC50 toward NOX1 (NOX1/A1/O1) | IC50 toward NOX2 (NOX2) | IC50 toward NOX4 (NOX4) | IC50 toward NOX5 (NOX5) | IC50 (DUOX2/A2; [11]) [nM] | other results |
| --- | --- | --- | --- | --- | --- | --- | --- | --- | --- | --- | --- | --- |
| [Cl-].c1csc([I+]c2cccs2)c1 [Compound 1, di-2-thienyliodonium chloride, reference compound] | 3410 ± 1600 | 1500 ± 1110 | 32300 ± 13800 | 3780 ± 2140 | 113000 ± 92300 |  |  |  |  |  |  | IC50 clonogenic survival, 2 hrs drug exposure (result in words) ([1]; 2 hrs exposure): No Inhibition |
| O=S(=O)([O-])C(F)(F)F.c1csc([I+]c2cccs2)c1 [Compound 3, di-2-thienyliodonium triflate] | 2220 ± 1210 | 1490 ± 646 | 29700 ± 41500 | 1200 ± 1120 |  |  |  |  |  |  |  | IC50 clonogenic survival, 2 hrs drug exposure (result in words) ([1]; 2 hrs exposure): No Inhibition; IC50 ([1]; Homo sapiens, HT-29, read-out: IC50 (±SE) clonogenic survival, 6 hrs drug exposure, 6 hrs exposure): 91200 ± 58800 nM; potency compared with parent molecule (DTI) [2]: more potent than its parent molecule |
| O=[N+]([O-])c1ccc2c(c1)[I+]c1cc([N+](=O)[O-])ccc1-2.[Br-] [Compound 15, Dibenziodolium, 3,7-dinitro-, bromide] | 357 ± 268 | 310 ± 53 | 139 ± 143 | 208 ± 129 | 116 ± 108 | 202 | low nM | low nM | low nM | low nM | 225 ± 24 | ROS production in HT-29 cells ([4]; treatment for 24 hr with 100 nM): significantly decreased; potency for inhibition of DUOX2 compared with parent compound (DPI) (DUOX2/A2): at least a log more potent; cytotoxic or cytostatic character [1]: cytotoxic; exposure required to inhibit growth / cell reproduction [1]: only a short exposure at nM concentrations; IC50 [1, 12]: 180 ± 157 nM; IC50 [1, 13]: < 10 nM; effect on cell cycle progression [5]: major block in cell cycle progression in S and G2 phases; G1 (%) ([5]; 250 nM): 23.9%; G2 (%) ([5]; 250 nM): 47.4%; S phase (%) ([5]; 250 nM): 28.7%; G1 (%) ([5]; 500 nM): 16.6%; G2 (%) ([5]; 500 nM): 25.2%; S phase (%) ([5]; 500 nM): 58.2% |
| Brc1ccc2c(c1)[I+]c1cc(Br)ccc1-2.[Br-] [Compound 16, Dibenziodolium, 3,7-dibromo-, bromide] | 70 ± 57 | 127 ± 20 | 161 ± 153 | 44 ± 21 | 536 ± 635 | 50 | low nM | low nM | low nM | low nM | 4140 ± 1720 | ROS production in HT-29 cells ([4]; treatment for 24 hr with 10 nM): significantly decreased; potency as inhibitor of NOX1 compared with DPI (NOX1/A1/O1): more potent; exposure required to inhibit growth / cell reproduction [1]: intermediate; IC50 [1, 12]: 1200 ± 1100 nM; IC50 [1, 13]: < 10 nM; G1 (%) ([5]; 250 nM): 64.5%; G2 (%) ([5]; 250 nM): 7.9%; S phase (%) ([5]; 250 nM): 28.1%; G1 (%) ([5]; 500 nM): 57.2%; G2 (%) ([5]; 500 nM): 6.5%; S phase (%) ([5]; 500 nM): 36.2% |
| COC(=O)c1ccc2c(c1)[I+]c1ccccc1-2.Cc1ccc(S(=O)(=O)[O-])cc1 [Compound 21, Dibenz[b,d]iodolium, 3-(methoxycarbonyl)-, salt with 4-methyl-benzenesulfonic acid (1:1)] | 249 ± 116 | 71 ± 15 | 127 ± 110 | 55 ± 20 |  |  | low nM | low nM | low nM | low nM | 1990 ± 1690 | IC50 ([3]; 48 hr drug exposure): 148 nM; ROS production in HT-29 cells ([4]; treatment for 24 hr with 10 nM): significantly decreased; potency as inhibitor of NOX4 compared with DPI (NOX4): more potent; IC50 ([1]; read-out: IC50 (±SE) clonogenic survival, 2 hrs drug exposure, 2 hrs exposure): ~7000 nM; IC50 ([1]; read-out: IC50 (±SE) clonogenic survival, 6 hrs drug exposure, 6 hrs exposure): 1300 ± 300 nM |
| CN(C)Cc1ccc2c(c1)[I+]c1cc(CN(C)C)ccc1-2.[I-] [Compound 24, Dibenziodolium, 3,7-bis[(dimethylamino)methyl]-, iodide] | 2520 ± 2410 | 4380 ± 999 | 35400 ± 42700 | 2090 ± 903 |  | 87 |  |  |  |  |  | inhibition of ROS production ([4]; HT-29 human colon cancer cells): no significant inhibition; inhibition of NOX1 expression (NOX1 mRNA expression): no significant inhibition |
| O=[N+]([O-])c1cccc2c1-c1c(cccc1[N+](=O)[O-])[I+]2.[Br-] [Compound 49, 1,9-dinitrodibenzo[b,d]iodolium bromide] |  |  |  |  |  |  | much higher | much higher | much higher | submicromolar |  | Growth inhibition of NOX1-containing colon cancer cells versus the other analogs ([3]; even at higher concentrations): much less; IC50 (NOX1/A1/O1; IC50 ± SE, NOX1/A1/O1 HEK 293, 3-5 independent experiments): 1020 ± 361 nM; IC50 (NOX2; IC50 ± SE, NOX2 HL-60, 3-5 independent experiments): 1470 ± 308 nM; IC50 (NOX4; IC50 ± SE, NOX4 HEK293, 3-5 independent experiments): 5530 ± 2680 nM; IC50 (NOX5; IC50 ± SE, NOX5 UACC-257, 3-5 independent experiments): 229 ± 123 nM; IC50 (DUOX2/A2): 773 ± 362 nM; inhibition of DUOX2, as worded in text (DUOX2/A2): submicromolar; potency for inhibition of DUOX2 compared with parent compound (DPI) (DUOX2/A2): at least a log more potent |
